2 compounds from US6569638B1, “Method for screening compounds for the treatment of neoplasia” (Cell Pathways, Inc, priority 2000, dated 2003) can be followed below.

One may read the GI50 as the concentration giving 50% growth inhibition.

Common to all, as to type: cell-based, human
Series [1] deals with PKG in SW480 cells. Kind of series: Western blot of PKG expression. The note with it: 48 hours. The procedure: SW480 cells treated with exisulind as described previously are harvested from the microfuge tubes by rinsing once with ice-cold PBS. The cells are lysed by modified RIPA buffer for 15 minutes with agitation. The cell lysate is spun down in a cold room. The supernatants are transferred to fresh microcentrifuge tubes immediately after spinning. BioRad DC Protein Assay (Temecula, Calif.) is performed to determine the protein concentrations in samples. The samples are normalized for protein concentration, as described above.
50 μg of each sample is loaded to 10% SDS gel. SDS-PAGE is performed, and the proteins then are transferred to a nitrocellulose membrane. The blotted nitrocellulose membrane are blocked in freshly prepared TBST containing 5% nonfat dry milk for one hour at room temperature with constant agitation.
A goat-anti-PKG primary antibody is diluted to the recommended concentration/dilution in fresh TBST/5% nonfat dry milk. The nitrocellulose membrane is placed in the primary antibody solution and incubated one hour at room temperature with agitation. The nitrocellulose membrane is washed three times for ten minutes each with TBST. The nitrocellulose membrane is incubated in a solution containing a secondary POD conjugated rabbit anti-goat antibody for 1 hour at room temperature with agitation. The nitrocellulose membrane is washed three times for ten minutes each time with TBST. […]
(In general: Immunoblotting shows a protein as a band on a membrane.)

The test system of series [2] is PrEC cells. Kind of series: Histone-associated fragmented DNA (apoptosis) in normal prostate epithelial cells. Conditions: 50 μM, up to 4 days. The procedure: The androgen-sensitive prostate tumor cell line, LNCaP (from ATCC (Rockville, Md.)) was propagated under standard conditions using […] medium containing 5% fetal calve serum and 2 mM glutamine. Primary prostate epithelial cell cultures (PrEC) derived from normal prostate (from Clonetics Inc. (San Diego, Calif.)) were grown under the same conditions as the tumor cell line except a serum-free medium optimized for the growth of such cultures was used (Clonetics Inc). For the experiments, LNCaP or PrEC cells were seeded in 96 well plates at a density of 10,000 cells per well. After 24 hours, the cells were treated with either vehicle (0.1% DMSO) or 50 μM Compound B (free base) solubilized in DMSO. After various drug treatment times ([…]) the cells were lysed and processed for measurement of histone-associated DNA as an indicator of apoptotic cell death (see, Piazza et al., Cancer Research 57: 2452-2459, 1997).

For series [3], the system named is NCI-H322M. Kind of series: Neutral red growth inhibition. The note with it: Lung, free base. The procedure: (§1) Compound B's activity is not confined to activity against colon cancer cell lines or animal models of colon cancer. It has a broad range of anti-neoplastic effects in various neoplastic cell lines. Various types of human cancer cell lines were propagated under sterile conditions in RPMI 1640 medium with 10% fetal bovine serum, 2 mM L-glutamine and sodium bicarbonate. To determine growth inhibitory effects of Compound B, cells were seeded in 96-well plates at a density of 1000 cells per well. Twenty-four hours after plating, the cells were dosed with various concentrations of the free base of Compound B solubilized in DMSO (final concentration 0.1%). The effect of the drug on tumor cell growth was determined using the neutral red cytotoxicity assay following five days of continuous treatment. Neutral red is a dye that is selectively taken up by viable cells by an ATP-dependent transport mechanism.

The subject of series [4] is MDA-MB-435. Put plainly: Neutral red growth inhibition. The note with it: MDA-MB-435, Breast, free base. How it is done:
as §1

Series [5] relates to HT-29. Put plainly: Neutral red growth inhibition. The note with it: HT-29, Colon, free base. The procedure:
as §1

The subject of series [6] is DU145. Put plainly: Neutral red growth inhibition. The note with it: DU145, Prostate, free base. The procedure: as §1
Series [7] has as its system MDA-MB-231. Put plainly: Neutral red growth inhibition. The note with it: MDA-MB-231, Breast, free base. How it is done:
as §1

Series [8] relates to Colo 205. Put plainly: Neutral red growth inhibition. Conditions: Colo 205, Colon, free base. The procedure:
as §1

The subject of series [9] is PC-3. Kind of series: Neutral red growth inhibition. Conditions: PC-3, Prostate, free base. How it is done:
as §1

Series [10] deals with OVCAR. Kind of series: Neutral red growth inhibition. Conditions: Ovary, HCl salt. How it is done:
as §1

Series [11] relates to UISO-BCA-1. Put plainly: Neutral red growth inhibition. The note with it: UISO-BCA-1, Breast, free base. How it is done:
as §1

Series [12] has as its system NCI-H23. Kind of series: Neutral red growth inhibition. Conditions: NCI-H23, Lung, free base. The procedure:
as §1

For `CC1=C(CC(=O)O)c2cc(F)ccc2/C1=C\c1ccc(S(C)(=O)=O)cc1` [exisulind, 5-fluoro-2-methyl-1-(p-methylsulfonylbenzylidene)-3-indenylacetic acid], in series [1], the “PKG level by Western blot” value was “the increase of PKG”.

As to `CC1=C(CC(=O)NCc2ccccc2)c2cc(F)ccc2/C1=C\c1ccncc1.Cl` [Compound B, (Z)-5-fluoro-2-methyl-(4-pyridylidene)-3-(N-benzyl)indenylacetamide hydrochloride], in [2], the DNA fragmentation result is “did not affect DNA fragmentation”. For the same compound, the concentration for 50% growth inhibition (GI50) in series [3] turned out to be 2100 nM; in series [4], 1600 nM; in series [5], 2100 nM; in series [6], 1600 nM; in series [7], 1800 nM; in series [8], 1600 nM. Also, the GI50 in series [9] is 1700 nM; in series [10], 1200 nM; in series [11] it was 1500 nM; in [12], 1700 nM. Further, the GI90 in [3] worked out at 13200 nM; in series [4], 2300 nM; in series [5], 8000 nM; in [6] it was 2800 nM; in series [7], 77600 nM; in [8], 2400 nM. The values for the GI90 in series [9], in series [11] and in series [12] were 82500 nM, 4700 nM and 2500 nM, respectively.
